Reference: patent US5684034A, “1H-indole-3-acetamide sPLA2 inhibitors” (Eli Lilly and Company, priority 1995, dated 1997)
Where two headings read alike, the source gives them in different places.

How the values were obtained:
sPLA2 = biological target: T1, sPLA2 (Homo sapiens, UniProt P14555); experiment: Tissue test: sPLA2-induced contraction of guinea pig lung pleural strips; design: species or system guinea pig (male Hartley); details: % suppression of sPLA2 contraction (sPLA2 10 ug/ml) at compound concentration of 30 uM, read-out: Tissue Test (sPLA2) % Supp (30 uM)
T1 sequence (P14555 21-144): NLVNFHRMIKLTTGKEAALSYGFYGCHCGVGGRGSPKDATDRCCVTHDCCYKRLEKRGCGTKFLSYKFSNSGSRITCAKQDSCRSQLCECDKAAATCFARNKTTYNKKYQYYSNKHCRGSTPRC
Excerpt: Male Hartley strain guinea pigs (500-700 g) were killed by cervical dislocation and their heart and lungs removed intact and placed in aerated (95% O2 :5% CO2) Krebs buffer. Dorsal pleural strips (4×1×25 mm) were dissected from intact parenchymal segments (8×4×25 mm) cut parallel to the outer edge of the lower lung lobes. Two adjacent pleural strips, obtained from a single lobe and representing a single tissue sample, were tied at either end and independently attached to a metal support rod. One rod was attached to a Grass force-displacement transducer (Model FTO3C, product of Grass Medical Instruments Co., Quincy, Mass., U.S.A.). […] All tissues were placed in 10 ml jacketed tissue baths maintained at 37° C. The tissue baths were continuously aerated and contained a modified Krebs solution of the following composition (millimolar) NaCl, 118.2; KCl, 4.6; CaCl2.2H2 O, 2.5; MgSO4.7H2 O, 1.2; NaHCO3, 24.8; KH2 PO4, 1.0; and dextrose, 10.0. Pleural strips from the opposite lobes of the lung were used for paired experiments. […] The tissues were allowed to equilibrate for 45 min. as the bath fluid was changed periodically.
Initially tissues were challenged 3 times with KCl (40 mM) to test tissue viability and to obtain a consistent response. After recording the maximal response to KCl, the tissues were washed and allowed to return to baseline before the next challenge. Cumulative concentration-response curves were obtained from pleural strips by increasing the agonist concentration (sPLA2) in the tissue bath by half-log10 increments while the previous concentration remained in contact with the tissues (Ref. 1, supra.) Agonist concentration was increased after reaching the plateau of the contraction elicited by the preceding concentration. One concentration-response curve was obtained from each tissue. To minimize variability between tissues obtained from different animals, contractile responses were expressed as a percentage of the maximal response obtained with the final KCl challenge. When studying the efects of various drugs on the contractile efects of sPLA2, the compounds and their respective vehicles were added to the tissues 30 min. prior to starting the sPLA2 concentration-response curves.
Data from different experiments were pooled and presented as a percentage of the maximal KCl responses (mean±S.E.). To estimate the drug induced rightward shifts in the concentration response curves, the curves were analyzed simultaneously using statistical nonlinear modeling methods similar to those described by Waud (1976), Equation 26, p. 163, (Ref. 2). The model includes four parameters: the maximum tissue response which was assumed the same for each curve, the ED50 for the control curve, the steepness of the curves, and the pA2, the concentration of antagonist chat requires a two-fold increase in agonist to achieve an equivalent response. The Schild slope was determined to be 1, using statistical nonlinear modeling methods similar to those described by Waud (1976), Equation 27, p. 164 (Ref. 2).
To estimate the drug-induced suppression of the maximal responses, sPLA2 responses (10 ug/ml) were determined in the absence and presence of drug, and percent suppression was calculated for each pair of tissues.

[1] = biological target: T2, recombinant human secreted phospholipase A2 (Homo sapiens, UniProt P14555); experiment: Human secreted phospholipase A2 inhibition test (chromogenic assay, diheptanoyl thio-PC substrate); assay type: biochemical; details: pH 7.5, 40° C., 30 minutes, 405 nm
T2 sequence (P14555 21-144): T1 sequence (P14555 21-144)
Protocol: The following chromogenic assay procedure was used to identify and evaluate inhibitors of recombinant human secreted phospholipase A2. The assay described herein has been adapted for high volume screening using 96 well microtiter plates.
A measured volume of racetic dipheptanoyl thio PC supplied in chloroform at a concentration of 100 mg/ml is taken to dryness and redissolved in 10 millimolar TRITON X-100™ nonionic detergent aqueous solution. Reaction Buffer is added to the solution, then DTNB to give the Reaction Mixture.
The reaction mixture thus obtained contains 1 mM diheptanoly thio-PC substrate, 0.29 mm Triton X-100™ detergent, and 0.12 mm DTMB in a buffered aqueous solution at pH 7.5.
1. Add 0.2 ml reaction mixture to all wells;
2. Add 10 ul test compound (or solvent blank) to appropriate wells, mix 20 seconds:
3. Add 50 nanograms of sPLA2 (10 microliters) to appropriate wells;
4. incubate plate at 40° C. for 30 minutes;
All compounds were tested in triplicate. […] Each sample was titrated in triplicate and result values were averaged for plotting and calculation of IC50 values. […] Each IC50 value was determined three times.

[2] = read-out: Inhibition of human secreted PLA2 IC50 ± mean deviation (3-5 tests)

Row | Compound | inhibition at 30 µM (sPLA2) | IC50 [1, 2] | IC50 ([1]; Inhibition of human secreted PLA2 IC50 ± mean deviation (3-5 tests))
1 | COc1ccc2c(c1)c(CC(N)=O)c(C)n2CC1CCCCC1 [Example 4, 1-Cyclohexylmethyl-5-methoxy-2-methyl-1H-indole-3-acetamide] | 10.5 ± 23.1% | 2050 ± 850 nM | 
2 | COc1ccc2c(c1)c(CC(N)=O)c(C)n2Cc1ccccc1 [Example 5, 5-Methoxy-2-methyl-1-(phenylmethyl)-1H-indole-3-acetamide] | 74.9 ± 4.2% | 840 ± 170 nM | 
3 | CCc1c(CC(N)=O)c2cc(OC)ccc2n1Cc1ccccc1 [Example 9, 2-Ethyl-5-methoxy-1-(phenylmethyl)-1H-indole-3-acetamide] | 49.2 ± 9.4% | 260 ± 110 nM | 
4 | COc1ccc2c(c1)c(CC(N)=O)c(SC)n2Cc1ccccc1 [Example 12, 5-Methoxy-2-(methylthio)-1-(phenylmethyl)-1H-indole-3-acetamide] | 30.3 ± 15.2% |  | 400 ± 90 nM
5 | Cc1c(CC(N)=O)c2cc([N+](=O)[O-])ccc2n1Cc1ccccc1 [Example 16, 2-Methyl-5-nitro-1-(phenylmethyl)-1H-indole-3-acetamide] | 51.7 ± 4.2% | 1840 ± 440 nM | 
6 | CCOC(=O)COc1ccc2c(c1)c(CC(N)=O)c(C)n2Cc1ccccc1 [Example 18, 2-[[3-(2-Amino-2-oxoethyl)-2-methyl-1-(phenylmethyl)-1H-indol-5-yl]oxy]acetic acid ethyl ester] | 74.1 ± 4% | 800 ± 50 nM | 
7 | Cc1c(CC(N)=O)c2cc(OCCCCC(=O)O)ccc2n1Cc1ccccc1 [Example 23, 5-[[3-(2-Amino-2-oxoethyl)-2-methyl-1-(phenylmethyl)-1H-indol-5-yl]oxy]pentanoic acid] | 83.3 ± 2.7% | 920 ± 360 nM | 
